Reference: US10150766B2, “P2X7 modulators” (Jansssen Pharmaceutica NV, priority 2014, dated 2018)
Where two headings read alike, the source gives them in different places.

What was measured:
P2X7 [1] = biological target: T1, P2X7 (Homo sapiens (Human), UniProt Q99572); experiment: Radioligand binding ([3H]A-804598) to membranes of human P2X7-1321N1 cells; conditions: human P2X7-1321N1 membranes, tracer tritiated A-804598, 1 hour at 4° C.
Method: P2X7 Antagonism in Recombinant Human P2X7 Cells or Recombinant Rat P2X7 Cells:
human or rat P2X7-1321N1 cells were collected and frozen @ −80° C. On the day of the experiment, cell membrane preparations were made according to standard published methods. […] The compound can be prepared as described in the literature. […] The assay was terminated by filtration (GF/B filters pre-soaked with 0.3% PEI) and washed with washing buffer (Tris-HCl 50 mM). The IC50 generated in the binding assay was corrected for tracer concentration and affinity of the tracer to derive at the affinity (Ki) of the test compounds. The data are presented in Table 2 under the headings: P2X7 human Ki (μM) and P2X7 rat Ki (μM). Data are analyzed and graphed on Graphpad Prism 5. For analysis, each concentration point is averaged from triplicate values and the averaged values are plotted on Graphpad Prism.

P2X7 [2] = biological target: T1, P2X7; experiment: P2X7 antagonism in human whole blood, IL-1β release (LPS + Bz-ATP, ELISA); assay type: cell-based; conditions: LPS 30 ng/ml + Bz-ATP 1 mM
Method: (§1) P2X7 Antagonism in Human Peripheral Blood Mononuclear Cells (PBMCs) and Human Whole Blood.
(§2) Human blood was collected using a blood donor program. PBMCs were isolated from blood using a Ficoll density gradient technique. Briefly, blood was laid on Ficoll solution and centrifuged at ROOM TEMPERATURE for 20 minutes at 2000 rpm. The buffy layer (between red blood cells and plasma) was carefully collected by aspiration, washed with PBS and centrifuged again at 1500 rpm for 15 minutes. The resulting cell pellet was washed and plated on 96 well-plates for experiments. For the Human Whole Blood experiments, 150 μl of human blood was plated on 96 well-plates. Lipopolysaccharide (LPS) (30 ng/ml) was added to each well and incubated for 1 hour. Test compounds were then added and incubated for 30 minutes. The P2X7 agonist, 2′(3′)-O-(4-benzoylbenzoyl) adenosine 5′-triphosphate (Bz-ATP) was then added at a final concentration of 0.5 mM (PBMC) or 1 mM (blood). Cells were incubated for an additional 1.5 hours. At that point, supernatant was collected and stored for IL-1β assay using manufacturer's protocol for enzyme-linked immunosorbant assay (ELISA). Data was expressed as percent control, where control is defined as the difference in IL-1β release in LPS+Bz-ATP samples and LPS only samples. Data was plotted as response (% control) versus concentration to generate IC50 values. […] Data are analyzed and graphed on Graphpad Prism 5. For analysis, each concentration point is averaged from triplicate values and the averaged values are plotted on Graphpad Prism. The IC50 for each compound is then uploaded into 3DX.

rat P2X7 = rat P2X7 (Rattus norvegicus (Rat), UniProt Q64663); experiment: P2X7 antagonism in recombinant rat P2X7 cells (column headed P2X7 Rat IC50); assay type: binding
Method: The in vitro affinity of the compounds of the invention for the rat and human P2X7 receptor was determined using a human peripheral blood mononuclear cells (PBMCs), a human whole blood assay, a Ca^2+ flux and radioligand binding assay in recombinant human P2X7 cells and recombinant rat P2X7 cells. […] The data represented in Tables 2 may represent a value from a single determination or when the experiment was run more than once, the data represents the average from between 2-12 runs.
P2X7 Antagonism in Recombinant Human P2X7 Cells or Recombinant Rat P2X7 Cells: […]

P2X7 [3] = biological target: T1, P2X7; experiment: P2X7 antagonism in human peripheral blood mononuclear cells (PBMCs), IL-1β release (LPS + Bz-ATP, ELISA); assay type: cell-based; conditions: P2X7, 10 μM test compound, LPS 30 ng/ml + Bz-ATP 0.5 mM, read-out: PBMC @10 μM (% control)
Method: as §1, §2

[4] = read-out: Human Whole Blood IC50

Chain of rat P2X7 (Q64663 whole entry): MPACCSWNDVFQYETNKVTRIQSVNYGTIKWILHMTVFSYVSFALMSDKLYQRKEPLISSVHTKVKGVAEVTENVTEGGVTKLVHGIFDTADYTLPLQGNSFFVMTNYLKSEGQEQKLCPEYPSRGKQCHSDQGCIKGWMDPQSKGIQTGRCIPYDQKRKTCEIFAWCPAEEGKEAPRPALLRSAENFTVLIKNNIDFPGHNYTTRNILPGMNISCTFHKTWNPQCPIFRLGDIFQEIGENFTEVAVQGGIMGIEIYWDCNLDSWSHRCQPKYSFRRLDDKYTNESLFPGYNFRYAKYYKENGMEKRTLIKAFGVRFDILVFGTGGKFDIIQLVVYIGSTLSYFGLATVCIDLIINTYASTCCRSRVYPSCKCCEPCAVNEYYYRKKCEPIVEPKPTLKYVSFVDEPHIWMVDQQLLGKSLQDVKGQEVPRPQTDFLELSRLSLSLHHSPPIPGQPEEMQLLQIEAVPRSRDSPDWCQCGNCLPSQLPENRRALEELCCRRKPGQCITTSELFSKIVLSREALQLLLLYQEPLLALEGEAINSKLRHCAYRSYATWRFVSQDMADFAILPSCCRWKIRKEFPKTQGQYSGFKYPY
T1 sequence (Q99572 whole entry): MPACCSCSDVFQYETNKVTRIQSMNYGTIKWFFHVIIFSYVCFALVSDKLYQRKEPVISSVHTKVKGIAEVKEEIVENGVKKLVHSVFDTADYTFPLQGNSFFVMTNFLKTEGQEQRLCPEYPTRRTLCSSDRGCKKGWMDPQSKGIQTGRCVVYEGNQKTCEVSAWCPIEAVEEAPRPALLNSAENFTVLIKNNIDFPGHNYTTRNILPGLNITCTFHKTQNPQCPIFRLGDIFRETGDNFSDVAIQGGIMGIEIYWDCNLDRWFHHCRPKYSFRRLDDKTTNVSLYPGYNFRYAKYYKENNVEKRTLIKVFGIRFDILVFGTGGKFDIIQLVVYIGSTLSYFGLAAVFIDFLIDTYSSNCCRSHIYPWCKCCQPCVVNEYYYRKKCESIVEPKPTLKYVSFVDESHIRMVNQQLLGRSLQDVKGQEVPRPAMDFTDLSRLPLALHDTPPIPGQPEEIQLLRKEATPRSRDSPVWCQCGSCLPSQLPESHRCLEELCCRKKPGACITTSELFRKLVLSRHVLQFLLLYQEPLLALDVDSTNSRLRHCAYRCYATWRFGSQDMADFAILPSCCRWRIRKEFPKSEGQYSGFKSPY

SMILES | Ki (P2X7 [1]) [nM] | IC50 (P2X7 [2]; [4]) [µM] | IC50 (rat P2X7) [nM] | remaining activity at 10 µM (P2X7 [3]) [%] | IC50 (P2X7 [2]; Human Whole Blood IC50 (μM)) [µM]
Cc1nc(-c2ccnn2C)c2c(n1)[C@H]1CCC[C@@H](C2)N1C(=O)c1cccc(Cl)c1Cl [Example 59, (2,3-dichlorophenyl)((6S,10R)-2-methyl-4-(1-methyl-1H-pyrazol-5-yl)-5,6,7,8,9,10-hexahydro-6,10-epiminocycloocta[d]pyrimidin-11-yl)methanone] | 135 | 0.372 | 1090 | -1.8 | –
Cc1nc(-c2ccccn2)c2c(n1)[C@H]1CCC[C@@H](C2)N1C(=O)c1ccc(Cl)c(F)c1Cl [Example 64, (2,4-dichloro-3-fluorophenyl)((6S,10R)-2-methyl-4-(pyridin-2-yl)-5,6,7,8,9,10-hexahydro-6,10-epiminocycloocta[d]pyrimidin-11-yl)methanone] | 20 | – | 376 | -2.8 | 0.037
Cc1nc(-c2ccn[nH]2)c2c(n1)[C@H]1CCC[C@@H](C2)N1C(=O)c1ccc(Cl)cc1Cl [Example 20, (2,4-dichlorophenyl)((6S,10R)-2-methyl-4-(1H-pyrazol-5-yl)-5,6,7,8,9,10-hexahydro-6,10-epiminocycloocta[d]pyrimidin-11-yl)methanone] | 120 | – | – | -9.9 | 0.221
Cc1nc(-c2ccn[nH]2)c2c(n1)[C@@H]1CCC[C@H](C2)N1C(=O)c1ccc(Cl)c(F)c1Cl [Example 10, (2,4-dichloro-3-fluorophenyl)((6R,10S)-2-methyl-4-(1H-pyrazol-5-yl)-5,6,7,8,9,10-hexahydro-6,10-epiminocycloocta[d]pyrimidin-11-yl)methanone] | 631 | – | – | 22.4 | 0.459
Cc1nc(-c2ccn[nH]2)c2c(n1)[C@H]1CCC[C@@H](C2)N1C(=O)c1ccc(Cl)c(F)c1Cl [Example 23, (2,4-dichloro-3-fluorophenyl)((6S,10R)-2-methyl-4-(1H-pyrazol-5-yl)-5,6,7,8,9,10-hexahydro-6,10-epiminocycloocta[d]pyrimidin-11-yl)methanone] | 31.6 | – | – | -24.7 | 0.018
Cc1nc(-c2ccc(F)cc2)c2c(n1)[C@@H]1CCC[C@H](C2)N1C(=O)c1cccc(C(F)(F)F)c1Cl [Example 13, (2-chloro-3-(trifluoromethyl)phenyl)((6R,10S)-4-(4-fluorophenyl)-2-methyl-5,6,7,8,9,10-hexahydro-6,10-epiminocycloocta[d]pyrimidin-11-yl)methanone] | – | – | 88.9 | 22.2 | 5.08
Cc1nc(-c2cnn(C)c2)c2c(n1)[C@H]1CCC[C@@H](C2)N1C(=O)c1ccnc(C(F)(F)F)c1Cl [Example 32, (3-chloro-2-(trifluoromethyl)pyridin-4-yl)((6S,10R)-2-methyl-4-(1-methyl-1H-pyrazol-4-yl)-5,6,7,8,9,10-hexahydro-6,10-epiminocycloocta[d]pyrimidin-11-yl)methanone] | – | – | > 10000 | 4.8 | 1.58
Cc1nc(-c2cnn(C)c2)c2c(n1)[C@H]1CCC[C@@H](C2)N1C(=O)c1cccc(C(F)(F)F)c1F [Example 34, (2-fluoro-3-(trifluoromethyl)phenyl)((6S,10R)-2-methyl-4-(1-methyl-1H-pyrazol-4-yl)-5,6,7,8,9,10-hexahydro-6,10-epiminocycloocta[d]pyrimidin-11-yl)methanone] | – | – | > 10000 | 3.3 | 8.59
Cc1nc(-c2ccn[nH]2)c2c(n1)[C@@H]1CCC[C@H](C2)N1C(=O)c1ccc(Cl)cc1F [Example 12, (4-chloro-2-fluorophenyl)((6R,10S)-2-methyl-4-(1H-pyrazol-5-yl)-5,6,7,8,9,10-hexahydro-6,10-epiminocycloocta[d]pyrimidin-11-yl)methanone] | – | 6.12 | > 10000 | 92.6 | –
Cc1nc(-c2ccn[nH]2)c2c(n1)[C@@H]1CCC[C@H](C2)N1C(=O)c1cccc(C(F)(F)F)c1C [Example 6, (2-methyl-3-(trifluoromethyl)phenyl)((6R,10S)-2-methyl-4-(1H-pyrazol-5-yl)-5,6,7,8,9,10-hexahydro-6,10-epiminocycloocta[d]pyrimidin-11-yl)methanone] | – | – | 970 | 18.1 | 1.13
Cc1nc(-c2cnn(C)c2)c2c(n1)[C@H]1CCC[C@@H](C2)N1C(=O)c1ccc(Cl)cc1F [Example 38, (4-chloro-2-fluorophenyl)((6S,10R)-2-methyl-4-(1-methyl-1H-pyrazol-4-yl)-5,6,7,8,9,10-hexahydro-6,10-epiminocycloocta[d]pyrimidin-11-yl)methanone] | – | > 10 | > 10000 | 46.8 | –
Cc1nc(-c2cnn(C)c2)c2c(n1)[C@H]1CCC[C@@H](C2)N1C(=O)c1ccc(Cl)c(F)c1Cl [Example 35, (2,4-dichloro-3-fluorophenyl)((6S,10R)-2-methyl-4-(1-methyl-1H-pyrazol-4-yl)-5,6,7,8,9,10-hexahydro-6,10-epiminocycloocta[d]pyrimidin-11-yl)methanone] | – | 2.3 | > 10000 | 9.1 | –
Cc1nc(-c2ccnn2C)c2c(n1)[C@H]1CCC[C@@H](C2)N1C(=O)c1ccnc(C(F)(F)F)c1Cl [Example 60, (3-chloro-2-(trifluoromethyl)pyridin-4-yl)((6S,10R)-2-methyl-4-(1-methyl-1H-pyrazol-5-yl)-5,6,7,8,9,10-hexahydro-6,10-epiminocycloocta[d]pyrimidin-11-yl)methanone] | – | – | 798 | 21.4 | 1.98
Cc1nc(-c2ccn[nH]2)c2c(n1)[C@@H]1CCC[C@H](C2)N1C(=O)c1ccc(F)cc1Cl [Example 9, (2-chloro-4-fluorophenyl)((6R,10S)-2-methyl-4-(1H-pyrazol-5-yl)-5,6,7,8,9,10-hexahydro-6,10-epiminocycloocta[d]pyrimidin-11-yl)methanone] | – | 2.96 | > 10000 | 91.3 | –
Cc1nc(-c2ccn[nH]2)c2c(n1)[C@@H]1CCC[C@H](C2)N1C(=O)c1ccc(F)c(Cl)c1Cl [Example 4, (2,3-dichloro-4-fluorophenyl)((6R,10S)-2-methyl-4-(1H-pyrazol-5-yl)-5,6,7,8,9,10-hexahydro-6,10-epiminocycloocta[d]pyrimidin-11-yl)methanone] | – | – | 948 | 25.4 | 1.36
Cc1nc(-c2cnn(C)c2)c2c(n1)[C@H]1CCC[C@@H](C2)N1C(=O)c1ccc(F)c(Cl)c1Cl [Example 33, (2,3-dichloro-4-fluorophenyl)((6S,10R)-2-methyl-4-(1-methyl-1H-pyrazol-4-yl)-5,6,7,8,9,10-hexahydro-6,10-epiminocycloocta[d]pyrimidin-11-yl)methanone] | – | 1.34 | > 10000 | 1.2 | –
Cc1nc(-c2ccn[nH]2)c2c(n1)[C@@H]1CCC[C@H](C2)N1C(=O)c1ccnc(C(F)(F)F)c1Cl [Example 7, (3-chloro-2-(trifluoromethyl)pyridin-4-yl)((6R,10S)-2-methyl-4-(1H-pyrazol-5-yl)-5,6,7,8,9,10-hexahydro-6,10-epiminocycloocta[d]pyrimidin-11-yl)methanone] | – | – | 920 | 20.5 | 2.35
Cc1nc(-c2cnn(C)c2)c2c(n1)[C@H]1CCC[C@@H](C2)N1C(=O)c1cccc(C(F)(F)F)c1C [Example 39, (2-methyl-3-(trifluoromethyl)phenyl)((6S,10R)-2-methyl-4-(1-methyl-1H-pyrazol-4-yl)-5,6,7,8,9,10-hexahydro-6,10-epiminocycloocta[d]pyrimidin-11-yl)methanone] | – | – | > 10000 | 1 | 1.09
